Where two headings read alike, the source gives them in different places.
Legend:
[1] = tested on: peripheral blood lymphocytes; test: Reduction of number of peripheral blood lymphocytes in rat (Test Example 2); assay type: in vivo; details: Lymphocyte, male Lewis rats, oral
Experimental: Evaluation of Reduction of Number of Peripheral Blood Lymphocytes in Rat
The action on the peripheral blood lymphocytes were evaluated using rats. 6- to 10-week-old male Lewis rats (Japan Charles River Laboratories Japan, Inc.) were randomly divided into groups (n=3), and the compound of the present invention was suspended in 0.5% methyl cellulose-containing distilled water, and orally administered with a sonde. At 4 hours or 24 hours after administration, 0.2 ml of blood was collected from the ocular fundus under ether anesthesia. To the blood sample were immediately added EDTA.4K and heparin to prevent clotting, and the number of the lymphocytes in blood was measured with an automatic hematocyte analyzer (Sysmex Corp.; XT-2000i). For the reduction of the number of the lymphocytes in peripheral blood by the compound of the present invention, the percentage with the number of the lymphocytes in groups administered with 0.5% methyl cellulose-containing distilled water being set at 100%, as performed at the same time, were used, and the dose to cause 50% reduction of the number of the lymphocytes in the peripheral blood by administration of the compound of the present invention was defined as an ED50 value (mg/kg).

human S1P1 [2] = biological target: T1, human S1P1 (Homo sapiens, UniProt P21453); test: GTP[γ-35S] binding assay using membrane of human S1P1 expressing cell (Test Example 1, Method 1); assay type: biochemical; details: method 1, GTP[γ-35S] binding, membrane of human S1P1 expressing CHO cell (values without *); read-out: A: EC50, in vitro S1P1 agonist action
T1 construct: expressed in transfected cells; membrane fraction used
Experimental: (§1) Evaluation of In Vitro S1P1 Receptor Agonist Activity in Biological Body
(Method 1) Method for Evaluation on Receptor Agonist Action by GTP[γ-^35S] Binding Assay Using Membrane of Human S1P1 Expressing Cell
The in vitro S1P1 agonist action of the compound of the present invention was evaluated by the increase in the functional binding activity of GTP[γ-^35S] to G-protein using the membrane of a human S1P1 expressing cell. A cDNA encoding a human S1P1 was cloned from a human colorectal cDNA library and introduced to an expression vector pcDNA3.1 to construct a S1P1-pcDNA3.1. Then, by Lipofectamine 2000 (GIBCO), the S1P1-pcDNA3.1 was transfected into a CHO cell, and cultured in a Ham's F-12 culture medium containing 10% fetal bovine serum, 100 U/mL penicillin, 100 μg/mL streptomycin, and 1 mg/mL G418 disulfate, to obtain a stable, G418-resistant strain. The cultured human S1P1 expressing cells were isolated in a 1 mM EDTA.2Na-containing PBS, and disrupted under ice-cooling by a homogenizer made of glass in a 1 mM Tris HCl (pH 7.4) buffer solution containing 0.1 mM EDTA and a protein inhibitor. It was centrifuged at […], and a supernatant was further centrifuged at 4° C. for 60 min at 100,000×g, and suspended in a 10 mM Tris HCl (pH 7.4) buffer solution containing 1 mM EDTA to purify the membrane. The obtained membrane (0.13 mg/mL) and […] GTP[γ-^35S] […] The filter plate was dried at 50° C. for 60 min, and Microscinti-o (Packard) was added thereto for measurement by a liquids scintillation counter for a microplate (Packard, TOP count). For evaluation of the human S1P1 agonist action of the compound of the present invention and the comparative compound, the percentages with the rate of a maximum reaction to make the GTP[γ-^35S] bonds saturated in the presence of the compound being set at 100%, and the rate of the reaction of the GTP[γ-^35S] bonds in the absence of the compound being set at 0% were used, a non-linear regression curve was plotted, and a concentration to cause an agonist action operating 50% of the maximum reaction was defined as an EC50 value (nM).

human S1P1 [3] = biological target: T1, human S1P1; test: Ca2+ influx assay using human S1P1 expressing cell (Test Example 1, Method 2); assay type: cell-based; details: method 2, Ca2+ influx, human S1P1 expressing CHO cell (values with *); read-out: A: EC50, in vitro S1P1 agonist action (value with *)
Experimental: as §1
(Method 2) Method for Evaluation of Receptor Agonist Action by Ca^2+ Influx Assay Using Human S1P1 Expressing Cell
The in vitro S1P1 agonist action of the compound of the present invention was evaluated by the increase in the Ca^2+ concentration in a human S1P1 expressing cell. A cDNA encoding a human S1P1 was cloned from a human colorectal cDNA library and introduced to an expression vector pcDNA3.1 to construct a S1P1-pcDNA3.1. Then, by Lipofectamine 2000 (GIBCO), the S1P1-pcDNA3.1 was transfected into a CHO cell, and cultured in a Ham's F-12 culture medium containing 10% fetal bovine serum, 100 U/mL penicillin, 100 μg/mL streptomycin, and 1 mg/mL G418 disulfate, to obtain a stable, G418-resistant strain. The cultured human S1P1 expressing cells were isolated in a 1 mM EDTA.2Na-containing PBS and suspended in a Ham's F-12 culture medium containing 10% fetal bovine serum, 100 U/mL penicillin, and 100 μg/mL streptomycin. This cell suspension was dispensed to a 96-well plate at 50000 cells/well, and cultured at a CO2 incubator (5% CO2, 37° C.) overnight. The culture medium was replaced with a calcium-sensitive fluorescent reagent (FLIPR (registered trademark) calcium 3 assay kit, molecular device)-containing loading buffer (Hank's balance salt solution, 20 mM HEPES, 2.5 mM probenecid) and left stand at a CO2 incubator (5% CO2, 37° C.) for 1 hour. The plate was set at a Functional Drug Screening System FDSS6000 (Hamamatsu Photonics K. K.), and persistently measured 124 times every 1.02 second at an excitation wavelength of 480 nm. The test compound (final concentration 10^−12 to 10^−5 M) was added at the same time as the 12th measurement, and the change in the Ca^2+ concentration in cells was evaluated by the change in the fluorescent strength. For evaluation of the human S1P1 agonist action of the compound of the present invention and the comparative compound, the percentages with the rate of a maximum reaction to make the increase in the Ca^2+ concentration in cells saturated after the addition of the compound being set at 100% and the rate of the increase in the Ca^2+ concentration in cells by the addition of a vehicle alone being set at 0% were used, a non-linear regression curve was plotted, and a concentration to cause an agonist action operating 50% of the maximum reaction was defined as an EC50 value (nM).

[4] = 24 hours after administration, read-out: B: ED50 24 h, reduction of number of lymphocytes in peripheral blood
[5] = 4 hours after administration, read-out: B: ED50 4 h, reduction of number of lymphocytes in peripheral blood

T1 sequence (P21453 whole entry): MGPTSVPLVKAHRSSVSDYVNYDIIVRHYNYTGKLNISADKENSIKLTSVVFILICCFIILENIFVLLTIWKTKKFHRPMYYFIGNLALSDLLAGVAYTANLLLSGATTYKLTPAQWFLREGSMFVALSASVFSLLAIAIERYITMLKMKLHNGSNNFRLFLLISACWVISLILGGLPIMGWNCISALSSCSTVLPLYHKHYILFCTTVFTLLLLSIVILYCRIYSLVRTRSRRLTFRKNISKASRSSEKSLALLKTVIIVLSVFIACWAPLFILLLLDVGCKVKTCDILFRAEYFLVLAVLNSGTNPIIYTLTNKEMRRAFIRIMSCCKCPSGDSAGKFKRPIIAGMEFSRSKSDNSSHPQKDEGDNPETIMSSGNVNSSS

EC50 (human S1P1 [2]) | EC50 (human S1P1 [3]) | SMILES | ED50 [1, 4] | ED50 [1, 5]
8.7 nM | – | C[C@H](Oc1ccc(COc2ccc3c(c2)OCC(CN2CCC=C(C(=O)O)C2)=C3)cc1Cl)C(F)(F)F.Cl [Ex 149] | 0.12 mg/kg | –
6.2 nM | – | O=C(O)C1CN(CC2=Cc3ccc(OCc4cc(-c5ccccc5)c(Br)s4)cc3OC2)C1 [Ex 43] | – | 0.26 mg/kg
5.4 nM | – | O=C(O)[C@H]1CCN(CC2=Cc3c(F)cc(OCc4ccc(-n5cccc5)c(C(F)(F)F)c4)cc3OC2)C1 [Ex 109] | – | 0.26 mg/kg
5.6 nM | – | O=C(O)C1(F)CCN(CC2=Cc3c(F)cc(OCc4cc(-c5ccccc5)c(C(F)(F)F)s4)cc3OC2)C1 (stereo not shown) [Ex 74] | – | 0.59 mg/kg
9.4 nM | – | Cc1c(OCc2ccc(C(F)(F)F)cc2C(F)(F)F)ccc2c1OCC(CN1CCC(C(=O)O)C1)=C2.Cl (stereo not shown) [Ex 137] | – | 0.11 mg/kg
6.3 nM | – | CC1CN(CC2=Cc3c(F)cc(OCc4cc(-c5ccccc5)c(C(F)(F)F)s4)cc3OC2)CC1C(=O)O (stereo not shown) [Ex 69] | – | 0.087 mg/kg
2 nM | – | O=C(O)C1CN(CC2=Cc3c(F)cc(OCc4ccc(C(F)(F)F)cc4C(F)(F)F)cc3OC2)C1 [Ex 34] | – | 0.01 mg/kg
6.1 nM | – | CC1(C(=O)O)CCN(CC2=Cc3c(F)cc(OCc4ccc(-n5cccc5)c(C(F)(F)F)c4)cc3OC2)C1 (stereo not shown) [Ex 89] | – | 0.16 mg/kg
– | – | C[C@H](Oc1ccc(COc2cc(F)c3c(c2)OCC(CN2CCC=C(C(=O)O)C2)=C3)cc1Cl)C(F)(F)F.Cl [Ex 144] | – | 0.16 mg/kg
1.5 nM | – | Cl.O=C(O)C1CCN(CC2=Cc3c(F)cc(OCc4ccc(C(F)(F)F)cc4C(F)(F)F)cc3OC2)C1 (stereo not shown) [Ex 45] | – | 0.1 mg/kg
10 nM | – | CC1(C(=O)O)CCN(CC2=Cc3c(F)cc(OCc4cc(-c5ccccc5)c(C(F)(F)F)s4)cc3OC2)C1 (stereo not shown) [Ex 66] | – | 0.21 mg/kg
1.7 nM | – | O=C(O)C1CN(CC2=C(Cl)c3ccc(OCc4ccc(C(F)(F)F)cc4C(F)(F)F)cc3OC2)C1 [Ex 25] | – | 0.013 mg/kg
4.6 nM | – | CC1(C(=O)O)CN(CC2=Cc3c(F)cc(OCc4cc(-c5ccccc5)c(C(F)(F)F)s4)cc3OC2)C1 [Ex 81] | – | 0.25 mg/kg
11 nM | – | O=C(O)C1=CCCN(CC2=Cc3c(F)cc(OCc4ccc(C(F)(F)F)cc4C(F)(F)F)cc3OC2)C1 [Ex 85] | – | 0.19 mg/kg
– | 16 nM | C[C@H](Oc1ccc(COc2ccc3c(c2)OCC(CN2CCC[C@@H](C(=O)O)C2)=C3)cc1C(F)(F)F)C(F)(F)F.Cl [Ex 156, (3R)-1-[(7-{[3-(trifluoromethyl)-4-{[(2S)-1,1,1-trifluoropropan-2-yl]oxy}benzyl]oxy}-2H-chromen-3-yl)methyl]piperidine-3-carboxylic acid hydrochloride] | 0.086 mg/kg | –
1.7 nM | – | CS(=O)(=O)NC(=O)C1CCN(CC2=Cc3c(F)cc(OCc4ccc(C(F)(F)F)cc4C(F)(F)F)cc3OC2)C1.Cl (stereo not shown) [Ex 1, 1-[(7-{[2,4-bis(trifluoromethyl)benzyl]oxy}-5-fluoro-2H-chromen-3-yl)methyl]-N-(methylsulfonyl)pyrrolidine-3-carboxamide hydrochloride] | – | 0.016 mg/kg
– | – | Cl.O=C(O)C1=CCCN(CC2=Cc3c(F)cc(OCc4ccc(OC(CF)CF)c(Cl)c4)cc3OC2)C1 [Ex 143] | – | 0.32 mg/kg

EC50 (human S1P1 [2]) | EC50 (human S1P1 [3]) | SMILES | ED50 [1, 4] | ED50 [1, 5]
– | 6.3 nM | CS(=O)(=O)NC(=O)[C@@H]1CCCN(CC2=Cc3c(F)cc(OCc4ccc(OC(CF)CF)c(C(F)(F)F)c4)cc3OC2)C1.Cl [Ex 152] | 0.28 mg/kg | –
– | 0.68 nM | Cl.O=C(O)C1=CCN(CC2=Cc3ccc(OCc4ccc(OC(CF)CF)c(Cl)c4)cc3OC2)CC1 [Ex 181] | 0.29 mg/kg | –
– | 32 nM | Cl.O=C(O)[C@H]1CCCN(CC2=Cc3c(F)cc(OCc4ccc(OCC(F)(F)F)c(C(F)(F)F)c4)cc3OC2)C1 [Ex 236] | 0.1 mg/kg | –
5.9 nM | – | C[C@H](Oc1ccc(COc2cc(F)c3c(c2)OCC(CN2CCC=C(C(=O)O)C2)=C3)cc1C(F)(F)F)C(F)(F)F.Cl [Ex 141] | – | 0.099 mg/kg
– | 1.1 nM | CC(C)Oc1ccc(COc2ccc3c(c2)OCC(CN2CCC=C(C(=O)O)C2)=C3)cc1Cl.Cl [Ex 151] | 0.35 mg/kg | –
2.3 nM | – | CCc1sc(COc2cc(F)c3c(c2)OCC(CN2CCC(C(=O)O)C2)=C3)cc1-c1ccccc1 (stereo not shown) [Ex 56] | – | 0.067 mg/kg
1.2 nM | – | CCCc1ccc(COc2ccc3c(c2)OCC(CN2CCC(C(=O)O)C2)=C3)c(OC)c1 (stereo not shown) [Ex 31] | – | 0.065 mg/kg
– | 2.2 nM | Cl.O=C(O)[C@@H]1CCCN(CC2=Cc3ccc(OCc4ccc(OCC(F)(F)F)c(C(F)(F)F)c4)cc3OC2)C1 [Ex 160] | 0.26 mg/kg | –
– | 9 nM | Cl.O=C(O)C1CCN(CC2=Cc3ccc(OCc4ccc(OCC(F)(F)F)c(C(F)(F)F)c4)cc3OC2)CC1 [Ex 171] | 0.14 mg/kg | –
22 nM | – | Cl.O=C(O)C1CN(CC2=Cc3ccc(C#CCCc4ccccc4)cc3OC2)C1 [Ex 132] | – | 0.16 mg/kg
– | 7.8 nM | Cl.O=C(O)C1=CCCN(CC2=Cc3ccc(OCc4ccc(C5CCCC5)c(C(F)(F)F)c4)cc3OC2)C1 [Ex 216] | 0.25 mg/kg | –
2.5 nM | – | O=C(O)C1CCN(CC2=Cc3c(F)cc(OCc4ccc(-c5ccccc5)c(C(F)(F)F)c4)cc3OC2)C1 (stereo not shown) [Ex 62] | – | 0.21 mg/kg
– | 1.1 nM | Cl.O=C(O)[C@@H]1CCCN(CC2=Cc3c(F)cc(OCc4ccc(OC(CF)CF)c(C(F)(F)F)c4)cc3OC2)C1 [Ex 212] | 0.21 mg/kg | –
55 nM | – | CC(C)Oc1ccc(COc2ccc3c(c2)OCC(CN2CCC=C(C(=O)O)C2)=C3)cc1C(F)(F)F.Cl [Ex 178] | 0.12 mg/kg | –
3.7 nM | – | Cl.O=C(O)C1CCN(CC2=Cc3ccc(OCc4ccc(C(F)(F)F)cc4C(F)(F)F)cc3OC2)C1 (stereo not shown) [Ex 44] | – | 0.37 mg/kg
8.5 nM | – | CC1(C(=O)O)CN(CC2=Cc3ccc(OCc4ccc(-n5cccc5)c(C(F)(F)F)c4)cc3OC2)C1 [Ex 116] | – | 0.1 mg/kg

Source: US8193378B2, “2H-chromene compound and derivative thereof” (Astellas Pharma Inc., priority 2008, dated 2012)
